Results published in patent EP2197879B1, “C7-SUBSTITUTED CAMPTOTHECIN ANALOGS” (priority 2007, dated 2009).
Read-outs that look alike come from different tables or passages of the source.

Legend:
[1] = test system: A2780/WT (wild-type) cells; assay: Sulforhodamine B (SRB) cytotoxicity assay in A2780/WT cells; format: cell-based
Description: (§1) Each of the testing conditions used in this study in both A2780/WT (wild-type) and A2780/DX5 cells were repeated in five to fifteen experiments that were performed on separate days. Each experiment consisted of one microtiter plate with at least eight individual assays of a given drug treatment condition on the plate. The sulforhodamine B (SRB) assay was used to assess cytotoxicity and absorbance at 570 nm (A570) in order to calculate the percentage of cell control (or percent cell survival) for the various treatment conditions in the plate wells.
(§2) Roswell Park Memorial Institute (RPMI 1640) medium, fetal bovine serum (FBS), and L-glutamine were purchased from Gibco BRL. Drugs were dissolved in sterile dimethylsulfoxide (DMSO), from American Type Culture Collection (ATCC) for stock solutions (2.5 to 5.0 mM). Subsequent dilutions were made using cell culture medium (prior to adding the drug to cells). SRB was purchased from Sigma and dissolved in 1.0 percent acetic acid. Trichloroacetic acid was purchased from VWR International.
(§3) Cells were manipulated in a Class IIA/B3 Biological Safety Cabinet (Forma Scientific) and maintained at 37°C in a humidified atmosphere containing 5% CO2 in a water-jacketed cell culture incubator (Forma Scientific). Cells were counted using a Coulter-Z1 counter (Beckman-Coulter). Following drug treatment, plates were washed using a Biomek 2000 station (Beckman) and, following exposure to SRB dye, plates were washed using an automated plate washer (Model EL404, Bio-Tek Instruments). Percentage of control was correlated to A570 values and determined using a Model EL800 plate reader (Bio-Tek Instruments).
(§4) Population doubling times for the two cell lines used in this study encompassed a total of five cell doublings corresponding to approximately 5 days for A2780/WT and A2780/DX5 cells. A2780/WT and A2780/DX5 cells were cultured in RPMI 1640 medium supplemented with 10% fetal bovine serum and 1 mM of L-glutamine. Both cell lines were maintained as monolayered cultures in T-25 or T-75 flasks and then seeded to microtiter plate wells for experiments described herein. Prior to SRB assays, cell viability was monitored by evaluation of microtiter plate wells. Dead cells detach and float while living cells remain attached to the bottom of the cell well.
(§5) The sulforhodamine B (SRB) cytotoxicity assay (see, Skehan P, et al., New colorimetric cytotoxicity assay for anticancer-drug screening. J. Natl. Cancer Inst. 82:1107-1112 (1990)) was used to determine the cytotoxic effects of BNP1350, SN-38, topotecan, 9-NH2-CPT, and 9-NO2-CPT on cell growth in vitro. Briefly, after the medium was aspirated from individual plate wells, trichloroacetic acid (100 µL of 10.0% solution) was added to each well, and the plates were incubated at 4°C for at least 1 hour. The plates were washed five-times with water using an automated microplate washer (Model EL 404, Bio-Tek Instruments), SRB solution (100 µL of 0.4 grams SRB dissolved in 100 mL 1.0 percent acetic acid) was added, and plates remained at room temperature for 15 minutes. The plates were then washed five-times using acetic acid (1.0%), air dried, and bound dye was solubilized in Tris base (150 µL, 10 mM). Plates were agitated (gently) for 5 minutes and the absorbance values of the SRB dye-protein adduct at a 570 nm wavelength (A570) were determined using an automated microtiter plate reader equipped with an A570 filter (Model EL800, BioTek Instruments). Table VII. Summary of Cytotoxicity Experiments in A2780/WT and DX5 Cells

A2780/DX5 cells = assay: Sulforhodamine B (SRB) cytotoxicity assay in A2780/DX5 cells; format: cell-based; conditions: for IC50 Ratio: A2780/DX5 versus A2780/WT
Description: as §1, §2, §3, §4, §5

[2] = Homo sapiens, SRB assay, A2780/WT cells, read-out: A2780/ WT (IC50)
[3] = Homo sapiens, SRB assay, A2780/DX5 cells, read-out: A2780/ DX5 (IC50)
[4] = Homo sapiens, A2780, read-out: A2780/ WT (IC50)
[5] = Homo sapiens, A2780, read-out: A2780/ DX5 (IC50)
[6] = SRB assay, A2780/WT cells, read-out: A2780/ WT (IC50)
[7] = SRB assay, A2780/DX5 cells, read-out: A2780/ DX5 (IC50)

| Compound | IC50 [1, 2] [nM] | IC50 Ratio (A2780/DX5 cells) | IC50 (A2780/DX5 cells; [3]) [nM] | IC50 [1, 4] [nM] | IC50 (A2780/DX5 cells; [5]) [nM] | IC50 [1, 6] [nM] | IC50 (A2780/DX5 cells; [7]) [nM] |
| --- | --- | --- | --- | --- | --- | --- | --- |
| CC[C@@]1(O)C(=O)OCc2c1cc1n(c2=O)Cc2c-1nc1ccccc1c2CC[Si](C)(C)CCCOC(C)=O [Compound 60, Acetic acid 3-{[2-(4-ethyl-4-hydroxy-3,13-dioxo-3,4, 12, 13-tetrahydro-1H-2-oxa-6,12a-diaza-dibenzo[b,h]fluoren-11-yl)-ethyl]-dimethyl-silanyl}-propyl ester] | 10.6 | 3 | 32.1 |  |  |  |  |
| CC[C@@]1(O)C(=O)OCc2c1cc1n(c2=O)Cc2c-1nc1ccccc1c2CC[Si](C)(C)CSCCO [Compound 35, (4S)-4-ethyl-4-hydroxy-11-{2-[(2-hydroxy-ethylsulfanylmethyl)-dimethyl-silanyl]-ethyl}-1,12-dihydro-4H-2-oxa-6,12a-diaza-dibenzo[b,h]fluorene-3,13-dione] | 8.2 | 2.6 | 21.6 |  |  |  |  |
| CC[C@@]1(O)C(=O)OCc2c1cc1n(c2=O)Cc2c-1nc1ccccc1c2CC[Si](C)(C)CNS(=O)(=O)c1ccc(Cl)cc1 [Compound 37, (4S)-4-chloro-N-({[2-(4-ethyl-4-hydroxy-3,13-dioxo-3,4,12,13-tetrahydro-1H-2-oxa-6,12a-diaza-dibenzo[b,h]fluoren-11-yl)-ethyl]-dimethylsilanyl} -methyl)-benzenesulfonamide] |  | 4.08 |  | 207 | 845 |  |  |
| CC[C@@]1(O)C(=O)OCc2c1cc1n(c2=O)Cc2c-1nc1ccccc1c2CC[Si](C)(C)CCCn1ccccc1=O [Compound 17, (4S)-11-(2-{dimethyl-[3-(2-oxo-2H-pyridin-1-yl)-propyl]-silanyl}-ethyl)-4-ethyl-4-hydroxy-1,12-dihydro-4H-2-oxa-6,12a-diaza-dibenzo[b,h]fluorene-3,13-dione] |  | 11.6 |  | 16 | 186 |  |  |
| CCC1(O)C(=O)OCc2c1cc1n(c2=O)Cc2c-1nc1ccccc1c2CC[Si](C)(C)CCCOC(=O)C1=CCNO1 (centres unmarked) [Compound 64, 2,3-Dihydro-isoxazole-5-carboxylic acid 3-{[2-(4-ethyl-4-hydroxy-3,13-dioxo-3,4,12,13-tetrahydro-1H-2-oxa-6,12a-diaza-dibenzo[b,h]fluoren-11-yl)-ethyl]-dimethyl-silanyl}-propyl ester] |  | 4.27 |  | 14 | 59.8 |  |  |
| CC[C@@]1(O)C(=O)OCc2c1cc1n(c2=O)Cc2c-1nc1ccccc1c2CC[Si](C)(C)CCCP(=O)(OC)OC [Compound 18, (4S)-(3-{[2-(4-ethyl-4-hydroxy-3,13-dioxo-3,4,12,13-tetrahydro-1H-2-oxa-6,12a-diaza-dibenzo[b,h]fluoren-11-yl)-ethyl]-dimethylsilanyl}-propyl)-phosphonic acid dimethyl ester] |  | 11.7 |  | 58.6 | 687 |  |  |
| CCC1(O)C(=O)OCc2c1cc1n(c2=O)Cc2c-1nc1ccccc1c2CC[Si](C)(C)CCC(=O)NC(CCC(=O)OCc1ccccc1)C(=O)OCc1ccccc1 (centres unmarked) [Compound 49, 2-(3-{[2-(4-Ethyl-4-hydroxy-3, 13-dioxo-3,4, 12, 13-tetrahydro-1H-2-oxa-6,12a-diaza-dibenzo[b,h]fluoren-11-yl)-ethyl]-dimethyl-silanyl}-propionylamino)-pentanedioic acid dibenzyl ester] | > 2000 |  | > 2000 |  |  |  |  |
| CCC1(O)C(=O)OCc2c1cc1n(c2=O)Cc2c-1nc1ccccc1c2CC[Si](C)(C)CCC(=O)NC(CCC(=O)O)C(=O)O (centres unmarked) [Compound 50, 2-(3-{[2-(4-Ethyl-4-hydroxy-3, 13-dioxo-3,4, 12, 13-tetrahydro-1H-2-oxa-6, 12a-diaza-dibenzo[b,h]fluoren-11-yl)-ethyl]-dimethyl-silanyl}-propionylamino)-pentanedioic add] |  | 1699.3 |  |  |  | 1700 | > 2000 |
| CC[C@@]1(O)C(=O)OCc2c1cc1n(c2=O)Cc2c-1nc1ccccc1c2CC[Si](C)(C)CCCOC(=O)c1ccccc1 [Compound 55, Benzoic acid 3-{[2-(4-ethyl-4-hydroxy-3,13-dioxo-3,4, 12, 13-tetrahydro-1H-2-oxa-6,12a-diaza-dibenzo[b,h]fluoren-11-yl)-ethyl]-dimethylsilanyl}-propyl ester] | 24 | 4.6 | 112 |  |  |  |  |
| CC[C@@]1(O)C(=O)OCc2c1cc1n(c2=O)Cc2c-1nc1ccccc1c2CC[Si](C)(C)CCCNC(=O)Nc1ccccc1 [Compound 25, (4S)-1-(3-{[2-(4-ethyl-4-hydroxy-3,13-dioxo-3,14,12,13-tetrahydro-1H-2-oxa-6,12a-diaza-dibenzo[b,h]fluoren-11-yl)-ethyl]-dimethylsilanyl}-propyl)-3-phenylurea] |  | 6.5 |  |  |  | 23.4 | 152 |
| CC[C@@]1(O)C(=O)OCc2c1cc1n(c2=O)Cc2c-1nc1ccccc1c2CC[Si](C)(C)CSC[C@H](NC(=O)OC(C)(C)C)C(=O)OC [Compound 8, (2R, 4S)-2-tert-butoxycarbonylamino-3-({[2-(4-ethyl-4-hydroxy-3,13-dioxo-3,4,12,13-tetrahydro-1H-2-oxa-6,12a-diaza-dibenzo[b,h]fluoren-11-yl)-ethyl]-dimethyl-silanyl}-methylsulfanyl)-propionic acid methyl ester] |  | 2.77 |  | 39.8 | 110 |  |  |
| CCN(CC)C(=O)NC[Si](C)(C)CCc1c2c(nc3ccccc13)-c1cc3c(c(=O)n1C2)COC(=O)[C@]3(O)CC [Compound 43, (4S)-1,1-diethyl-3-({[2-(4-ethyl-4-hydroxy-3,13-dioxo-3,4,12,13-tetrahydro-1H-2-oxa-6,12a-diaza-dibenzo[b,h]fluoren-11-yl)-ethyl]-dimethylsilanyl} -methyl)-urea] |  | 4.28 |  | 68.9 | 295 |  |  |
| CC[C@@]1(O)C(=O)OCc2c1cc1n(c2=O)Cc2c-1nc1ccccc1c2CC[Si](C)(C)CCCNC(=O)N(C)C [Compound 29, (4S)-3-(3-{[2-(4-ethyl-4-hydroxy-3,13-dioxo-3,4,12,13-tetrahydro-1H-2-oxa-6,12a-diaza-dibenzo[b,h]fluoren-11-yl)-ethyl]-dimethylsilanyl}-propyl)-1,1-dimethylurea] |  | 11.4 |  | 27.5 | 312 |  |  |
| CC[C@@]1(O)C(=O)OCc2c1cc1n(c2=O)Cc2c-1nc1ccccc1c2CC[Si](C)(C)Cn1ccccc1=O [Compound 31, (4S)-11-{2-[dimethyl-(2-oxo-2H-pyridin-1-ylmethyl)-silanyl]-ethyl}-4-ethyl-4-hydroxy-1,12-dihydro-4H-2-oxa-6,12a-diaza-dibenzo[b,h]fluorene-3,13-dione] |  | 8.1 |  | 12.1 | 98.5 |  |  |
| CC[C@@]1(O)C(=O)OCc2c1cc1n(c2=O)Cc2c-1nc1ccccc1c2CC[Si](C)(C)CN1CCCC1 [Compound 32, (4S)-11-[2-(dimethyl-pyrrolidin-1-ylmethyl-silanyl)-ethyl]-4-ethyl-4-hydroxy-1,12-dihydro-4H-2-oxa-6,12a-diaza-dibenzo[b,h]fluorene-3,13-dione] | 46.4 | 6.9 |  |  | 319 |  |  |
| CC[C@@]1(O)C(=O)OCc2c1cc1n(c2=O)Cc2c-1nc1ccccc1c2CC[Si](C)(C)CCCS(=O)(=O)c1ccccc1 [Compound 13, (4S)-11-{2-[(3-benzenesulfonylaronyl)-dimethylsilanyl]-ethyl}-4-ethyl-4-hydroxy-1,12-dihydro-4H-2-oxa-6,12a-diaza-dibenzo[b,h]fluorene-3,13-dione] |  | 6.3 |  |  |  | 8.5 | 53.5 |
